Data reported in article PMC6199744, “Development of Chemical Proteomics for the Folateome and Analysis of the Kinetoplastid Folateome” (ACS Infectious Diseases, 2018).
Like-named read-outs stand apart in the source and are kept apart here.

How the values were obtained:
Type in all cases: binding
[1] = molecular target: T1, HeLa cell extract proteins (Homo sapiens, UniProt Q8TEQ6); details: protein GEMIN5; HeLa
T1 construct: endogenous in cells; host or cells: HeLa cell extract

[2] = molecular target: T2, HeLa cell extract proteins (Homo sapiens, UniProt Q8WUX1); details: HeLa; protein SLC38A5
T2 construct: endogenous in cells; host or cells: HeLa cell extract

[3] = molecular target: T3, HeLa cell extract proteins (Homo sapiens, UniProt Q14746); details: captured protein COG2; HeLa
T3 construct: endogenous in cells; host or cells: HeLa cell extract
T3 sequence (Q14746 1-738): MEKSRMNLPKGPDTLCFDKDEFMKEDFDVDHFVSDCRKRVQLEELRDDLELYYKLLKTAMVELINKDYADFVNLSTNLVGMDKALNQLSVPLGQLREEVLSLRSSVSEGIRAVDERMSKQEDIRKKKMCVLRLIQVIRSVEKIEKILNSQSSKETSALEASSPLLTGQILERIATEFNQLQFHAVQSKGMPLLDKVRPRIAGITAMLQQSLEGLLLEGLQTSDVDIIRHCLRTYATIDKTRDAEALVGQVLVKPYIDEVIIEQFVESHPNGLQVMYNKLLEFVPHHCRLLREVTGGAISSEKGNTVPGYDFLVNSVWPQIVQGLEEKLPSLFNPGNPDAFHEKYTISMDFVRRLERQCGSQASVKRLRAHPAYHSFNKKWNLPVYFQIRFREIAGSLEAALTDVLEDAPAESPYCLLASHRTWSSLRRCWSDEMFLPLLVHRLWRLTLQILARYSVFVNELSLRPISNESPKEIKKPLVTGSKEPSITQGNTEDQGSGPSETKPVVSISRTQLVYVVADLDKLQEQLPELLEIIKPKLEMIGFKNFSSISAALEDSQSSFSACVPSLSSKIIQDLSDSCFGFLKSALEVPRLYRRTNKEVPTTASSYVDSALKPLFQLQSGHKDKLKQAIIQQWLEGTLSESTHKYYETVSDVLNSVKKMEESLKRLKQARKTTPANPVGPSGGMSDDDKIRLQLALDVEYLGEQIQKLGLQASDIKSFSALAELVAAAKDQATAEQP

[4] = molecular target: T4, HeLa cell extract proteins (Homo sapiens, UniProt Q92688); details: HeLa; protein ANP32B (ISOFORM 1 OF ACIDIC LEUCINE-RICH NUCLEAR PHOSPHOPROTEIN 32 FAMILY MEMBER B.)
T4 construct: endogenous in cells; host or cells: HeLa cell extract

[5] = molecular target: T5, HeLa cell extract proteins (Homo sapiens, UniProt Q13510); details: HeLa; protein ASAH1
T5 construct: endogenous in cells; host or cells: HeLa cell extract
T5 sequence (Q13510 22-395): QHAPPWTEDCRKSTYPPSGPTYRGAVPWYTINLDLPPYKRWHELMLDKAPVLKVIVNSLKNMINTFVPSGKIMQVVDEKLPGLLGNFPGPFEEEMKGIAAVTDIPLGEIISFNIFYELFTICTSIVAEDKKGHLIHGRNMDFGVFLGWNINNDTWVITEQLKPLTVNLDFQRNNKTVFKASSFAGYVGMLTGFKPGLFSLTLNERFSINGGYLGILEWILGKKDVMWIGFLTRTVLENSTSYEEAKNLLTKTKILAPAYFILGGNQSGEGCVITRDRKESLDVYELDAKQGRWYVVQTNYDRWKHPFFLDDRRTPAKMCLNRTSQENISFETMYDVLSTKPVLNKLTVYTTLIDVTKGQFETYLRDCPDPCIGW

[6] = molecular target: T6, HeLa cell extract proteins (Homo sapiens, UniProt P40938)
T6 construct: endogenous in cells; host or cells: HeLa cell extract

[7] = molecular target: T7, HeLa cell extract proteins (Homo sapiens, UniProt Q12904)
T7 construct: endogenous in cells; host or cells: HeLa cell extract
T7 sequence (Q12904 1-312): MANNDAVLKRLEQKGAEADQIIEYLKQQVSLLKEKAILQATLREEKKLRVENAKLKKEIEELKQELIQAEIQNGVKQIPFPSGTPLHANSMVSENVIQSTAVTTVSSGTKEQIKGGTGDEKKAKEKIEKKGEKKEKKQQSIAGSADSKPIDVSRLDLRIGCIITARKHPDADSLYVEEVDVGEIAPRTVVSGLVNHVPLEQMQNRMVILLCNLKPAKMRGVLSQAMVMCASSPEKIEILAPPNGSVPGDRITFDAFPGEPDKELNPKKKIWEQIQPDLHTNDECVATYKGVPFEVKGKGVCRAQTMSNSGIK

[8] = molecular target: T8, HeLa cell extract proteins (Homo sapiens, UniProt P52565)
T8 construct: endogenous in cells; host or cells: HeLa cell extract
T8 sequence (P52565 1-204): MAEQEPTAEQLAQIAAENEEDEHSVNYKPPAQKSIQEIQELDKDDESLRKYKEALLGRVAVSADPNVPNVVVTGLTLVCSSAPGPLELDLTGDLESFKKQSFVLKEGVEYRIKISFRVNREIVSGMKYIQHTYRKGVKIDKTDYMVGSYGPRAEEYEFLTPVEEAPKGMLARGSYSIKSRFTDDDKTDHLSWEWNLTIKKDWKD

[9] = molecular target: T9, HeLa cell extract proteins (Homo sapiens, UniProt Q9BWD1)
T9 construct: endogenous in cells; host or cells: HeLa cell extract

[10] = molecular target: T10, HeLa cell extract proteins (Homo sapiens, UniProt Q13616)
T10 construct: endogenous in cells; host or cells: HeLa cell extract
T10 sequence (Q13616 whole entry): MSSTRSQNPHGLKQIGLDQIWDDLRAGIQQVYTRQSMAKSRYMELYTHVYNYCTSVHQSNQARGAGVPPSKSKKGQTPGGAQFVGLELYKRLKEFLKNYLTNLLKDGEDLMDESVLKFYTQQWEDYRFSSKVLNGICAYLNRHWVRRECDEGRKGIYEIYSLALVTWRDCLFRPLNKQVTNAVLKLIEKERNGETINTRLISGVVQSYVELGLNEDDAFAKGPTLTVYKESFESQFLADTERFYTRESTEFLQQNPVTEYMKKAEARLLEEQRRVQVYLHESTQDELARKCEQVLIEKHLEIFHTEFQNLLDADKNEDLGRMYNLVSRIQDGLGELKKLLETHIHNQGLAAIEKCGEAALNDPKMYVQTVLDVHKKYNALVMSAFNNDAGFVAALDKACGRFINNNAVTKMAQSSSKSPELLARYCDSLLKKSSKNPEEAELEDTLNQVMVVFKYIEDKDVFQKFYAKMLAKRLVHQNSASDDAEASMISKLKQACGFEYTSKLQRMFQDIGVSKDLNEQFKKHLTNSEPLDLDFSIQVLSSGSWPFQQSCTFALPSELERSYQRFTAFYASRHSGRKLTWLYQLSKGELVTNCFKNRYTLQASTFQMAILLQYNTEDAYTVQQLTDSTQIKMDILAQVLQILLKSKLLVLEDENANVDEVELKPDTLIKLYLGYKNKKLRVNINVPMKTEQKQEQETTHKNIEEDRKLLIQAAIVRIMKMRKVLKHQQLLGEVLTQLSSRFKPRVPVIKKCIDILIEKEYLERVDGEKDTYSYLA

T2 sequence (Q8WUX1 whole entry): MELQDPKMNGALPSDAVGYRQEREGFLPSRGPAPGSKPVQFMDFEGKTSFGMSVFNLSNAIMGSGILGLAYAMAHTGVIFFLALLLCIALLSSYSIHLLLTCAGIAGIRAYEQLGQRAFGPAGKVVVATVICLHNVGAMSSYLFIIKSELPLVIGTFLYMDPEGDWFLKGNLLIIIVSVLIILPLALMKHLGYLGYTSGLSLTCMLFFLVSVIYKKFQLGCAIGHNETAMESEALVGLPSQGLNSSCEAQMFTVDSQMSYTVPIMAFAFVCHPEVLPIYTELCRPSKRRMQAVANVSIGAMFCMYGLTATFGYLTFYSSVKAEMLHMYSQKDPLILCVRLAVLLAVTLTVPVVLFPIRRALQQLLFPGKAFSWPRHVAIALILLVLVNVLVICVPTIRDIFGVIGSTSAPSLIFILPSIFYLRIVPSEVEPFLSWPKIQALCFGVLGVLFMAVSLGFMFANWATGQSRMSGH
T9 sequence (Q9BWD1 whole entry): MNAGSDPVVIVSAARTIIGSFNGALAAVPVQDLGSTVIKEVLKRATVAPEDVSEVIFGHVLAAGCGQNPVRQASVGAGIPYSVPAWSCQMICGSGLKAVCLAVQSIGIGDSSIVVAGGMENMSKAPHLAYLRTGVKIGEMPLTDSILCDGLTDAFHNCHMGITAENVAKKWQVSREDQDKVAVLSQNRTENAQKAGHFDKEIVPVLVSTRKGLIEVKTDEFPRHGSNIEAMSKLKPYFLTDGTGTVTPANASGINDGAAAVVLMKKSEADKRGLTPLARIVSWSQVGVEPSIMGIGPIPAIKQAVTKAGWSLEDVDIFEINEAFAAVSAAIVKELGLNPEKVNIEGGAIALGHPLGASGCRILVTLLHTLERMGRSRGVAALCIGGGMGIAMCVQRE
T1 sequence (Q8TEQ6 whole entry): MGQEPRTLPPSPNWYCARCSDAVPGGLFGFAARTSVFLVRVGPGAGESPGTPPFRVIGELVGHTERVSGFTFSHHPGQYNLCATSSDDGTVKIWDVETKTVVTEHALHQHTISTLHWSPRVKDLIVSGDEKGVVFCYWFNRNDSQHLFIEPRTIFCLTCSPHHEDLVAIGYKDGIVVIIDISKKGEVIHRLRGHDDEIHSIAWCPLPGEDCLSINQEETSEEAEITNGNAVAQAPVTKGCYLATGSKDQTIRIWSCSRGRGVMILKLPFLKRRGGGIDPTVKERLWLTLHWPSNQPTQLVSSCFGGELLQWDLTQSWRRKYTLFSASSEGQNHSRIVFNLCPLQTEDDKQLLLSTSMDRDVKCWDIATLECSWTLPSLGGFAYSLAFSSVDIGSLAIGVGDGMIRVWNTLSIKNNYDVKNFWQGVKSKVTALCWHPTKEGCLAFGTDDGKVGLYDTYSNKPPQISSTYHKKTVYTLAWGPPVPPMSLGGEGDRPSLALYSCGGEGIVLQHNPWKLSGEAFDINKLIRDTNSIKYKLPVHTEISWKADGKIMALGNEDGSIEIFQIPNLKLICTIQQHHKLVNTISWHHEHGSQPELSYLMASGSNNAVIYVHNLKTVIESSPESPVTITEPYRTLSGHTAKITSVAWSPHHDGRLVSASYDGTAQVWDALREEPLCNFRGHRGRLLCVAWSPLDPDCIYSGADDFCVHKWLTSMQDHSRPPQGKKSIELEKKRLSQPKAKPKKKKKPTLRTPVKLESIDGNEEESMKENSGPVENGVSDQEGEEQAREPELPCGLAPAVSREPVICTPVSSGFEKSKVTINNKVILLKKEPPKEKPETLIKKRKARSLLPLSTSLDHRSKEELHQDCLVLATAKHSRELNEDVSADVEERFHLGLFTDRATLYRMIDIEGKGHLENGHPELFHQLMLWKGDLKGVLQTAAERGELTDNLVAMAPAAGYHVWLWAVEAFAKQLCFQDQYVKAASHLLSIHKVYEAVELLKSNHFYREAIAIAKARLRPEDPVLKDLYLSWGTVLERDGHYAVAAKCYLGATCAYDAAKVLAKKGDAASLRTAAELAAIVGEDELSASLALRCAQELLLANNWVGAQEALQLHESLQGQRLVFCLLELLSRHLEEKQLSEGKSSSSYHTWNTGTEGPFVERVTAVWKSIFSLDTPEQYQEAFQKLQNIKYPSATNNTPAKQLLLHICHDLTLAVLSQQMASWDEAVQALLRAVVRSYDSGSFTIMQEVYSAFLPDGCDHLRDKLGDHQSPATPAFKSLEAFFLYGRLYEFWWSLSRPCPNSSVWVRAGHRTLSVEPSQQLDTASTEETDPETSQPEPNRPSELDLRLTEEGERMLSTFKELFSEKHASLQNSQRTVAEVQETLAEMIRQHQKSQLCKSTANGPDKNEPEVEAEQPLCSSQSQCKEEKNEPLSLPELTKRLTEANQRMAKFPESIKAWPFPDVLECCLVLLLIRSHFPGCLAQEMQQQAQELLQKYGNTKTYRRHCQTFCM
T4 sequence (Q92688 whole entry, canonical isoform): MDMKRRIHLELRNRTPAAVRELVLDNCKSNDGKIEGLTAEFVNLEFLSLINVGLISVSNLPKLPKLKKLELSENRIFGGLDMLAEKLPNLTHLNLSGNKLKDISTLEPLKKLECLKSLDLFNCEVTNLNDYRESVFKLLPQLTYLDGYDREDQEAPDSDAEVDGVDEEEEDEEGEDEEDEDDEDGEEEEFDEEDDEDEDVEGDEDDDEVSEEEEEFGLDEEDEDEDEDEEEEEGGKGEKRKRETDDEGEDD
T6 sequence (P40938 whole entry): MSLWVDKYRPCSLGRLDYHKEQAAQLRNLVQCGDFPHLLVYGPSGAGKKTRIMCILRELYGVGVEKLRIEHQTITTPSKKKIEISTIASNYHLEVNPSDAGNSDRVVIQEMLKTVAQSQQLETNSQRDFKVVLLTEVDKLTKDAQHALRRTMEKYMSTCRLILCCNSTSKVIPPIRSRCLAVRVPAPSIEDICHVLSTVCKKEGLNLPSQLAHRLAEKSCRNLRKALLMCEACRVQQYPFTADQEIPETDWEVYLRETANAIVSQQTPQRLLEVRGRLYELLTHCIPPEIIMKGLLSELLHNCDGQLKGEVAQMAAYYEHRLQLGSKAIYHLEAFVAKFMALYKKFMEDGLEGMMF

Row | Compound | fold changes relative to vehicle control [1] | fold changes relative to vehicle control [2] | fold changes relative to vehicle control [3] | fold changes relative to vehicle control [4] | fold changes relative to vehicle control [5] | fold changes relative to vehicle control ([6]; HeLa, protein RFC3) | fold changes relative to vehicle control ([7]; HeLa, protein SCYE1) | fold changes relative to vehicle control ([8]; HeLa, protein ARHGDIA) | fold changes relative to vehicle control ([9]; HeLa, protein ACAT2) | fold changes relative to vehicle control ([10]; HeLa, protein CUL1) | further results
1 | CCCCCCOc1cccc(Cc2cnc(N)nc2N)c1 [compound 2] | 1.12 | 1.14 | 1 | 3.3 fold | 0.71 | – | – | – | – | – | –
2 | NCCOCCOCC(=O)Nc1nc2ncc(CNc3ccc(C(=O)NC(CCC(=O)O)C(=O)O)cc3)nc2c(=O)[nH]1 (centres unmarked) [compound 6] | – | – | – | – | – | 1.14 | 0.99 | 1.18 | 1.17 | 1.22 | –
3 | CCCCCCOc1ccc(Cc2cnc(N)nc2N)cc1 [compound 1] | 0.99 | 0.91 | 0.88 | 1.88 fold | 0.97 | – | – | – | – | – | –
4 | Nc1nc2c(c(=O)[nH]1)N(C=O)C(CNc1ccc(C(=O)N[C@@H](CCC(=O)O)C(=O)O)cc1)CN2 (some centres unmarked) [LEU, leucovorin] | – | – | – | – | – | 0.99 | 0.85 | 1.03 | 1.06 | 0.98 | –
5 | NCCCNc1ccc(C(=O)NC(CCC(=O)O)C(=O)O)cc1 (centres unmarked) [compound 7] | – | – | – | – | – | 1.16 | 0.86 | 1.08 | 1.12 | 1.02 | –
6 | Nc1nc2[nH]cc(CCc3ccc(C(=O)N[C@@H](CCC(=O)O)C(=O)O)cc3)c2c(=O)[nH]1 [PTX, pemetrexed] | – | – | – | – | – | – | – | – | – | – | fold changes relative to vehicle control [6]: 1.01; fold changes relative to vehicle control [7]: 0.91; fold changes relative to vehicle control [8]: 1.08; fold changes relative to vehicle control [9]: 0.82; fold changes relative to vehicle control [10]: 1.03
7 | Nc1nc2cccc(-c3ccccc3)c2n1Cc1ccc(Cl)c(Cl)c1 [compound 3] | 1.61 | 0.95 | 0.82 | 4.13 fold | 0.89 | – | – | – | – | – | –
